# Measurements reported in US8623859B2, “Bradykinin B1 antagonists” (Evotec AG, priority 2008, dated 2014).
# Where a name gives a salt, the structure may show the parent alone.
# Molecular target: T1, human B1 (Homo sapiens, UniProt P46663)
# T1 construct: host or cells: CHO-K1
# T1 sequence (P46663 1-353): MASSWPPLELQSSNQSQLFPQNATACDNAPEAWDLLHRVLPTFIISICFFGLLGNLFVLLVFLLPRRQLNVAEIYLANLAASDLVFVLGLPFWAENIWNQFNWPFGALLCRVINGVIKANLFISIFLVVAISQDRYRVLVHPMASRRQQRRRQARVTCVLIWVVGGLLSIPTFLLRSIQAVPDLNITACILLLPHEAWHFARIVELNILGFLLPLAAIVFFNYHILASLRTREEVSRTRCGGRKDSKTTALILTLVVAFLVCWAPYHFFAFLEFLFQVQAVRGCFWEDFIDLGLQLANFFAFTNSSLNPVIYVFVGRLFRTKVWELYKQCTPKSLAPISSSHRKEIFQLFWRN
# Experiment: Calcium flux assay for Bradykinin B1 antagonist, CHO-K1 cell line expressing human B1
# Type: cell-based
# Conditions: CHO-K1 cells expressing human B1, agonist Lys-(Des-Arg)-Bradykinin, read-out: Potency (IC50 value against human B1)
# Outline: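 Inhibition of B1 agonist-evoked intracellular Ca2+ rise was followed by continuous fluorescence at 538 nm, with integrated, background-normalized signals plotted versus log compound concentration. Test compounds (eight 10-fold dilutions, triplicate, 1% DMSO final) were added 30 min at 25° C beforehand to Fluo-4AM-loaded human B1 CHO-K1 cells in pH 7.4 assay buffer.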
row,IC50,Compound
1,< 0.01 µM,"COc1cc(C)c(S(=O)(=O)N(C)Cc2nnc(C(=O)NCCc3ccc(C4=NCCN4)cc3)s2)c(C)c1 [Ex 330, N-{2-[4-(4,5-Dihydro-1H-imidazol-2-yl)phenyl]ethyl}-5-({[(4-methoxy-2,6-dimethylphenyl)sulfonyl](methyl)amino}methyl)-1,3,4-thiadiazole-2-carboxamide trifluoroacetamide]"
2,< 0.01 µM,"COc1cc(C)c(S(=O)(=O)N(Cc2nc(C(=O)N(C)Cc3ccc(CN4CCC(C(=O)N(C)C)C4)cc3)co2)C2CC2)c(C)c1 (centres unmarked) [Ex 186, 2-({Cyclopropyl[(4-methoxy-2,6-dimethylphenyl)sulfonyl]amino}methyl)-N-(4-{[3-(dimethylcarbamoyl)pyrrolidin-1-yl]methyl}benzyl)-N-methyl-1,3-oxazole-4-carboxamide]"
3,< 0.01 µM,"Cc1cc(S(=O)(=O)N(C)Cc2cc(C(=O)N(C)Cc3ccc(C4=NCCN4)cc3)co2)c(C)cc1Cl [Ex 20, 5-({[(4-chloro-2,5-dimethylphenyl)sulfonyl](methyl)amino}methyl)-N-[4-(4,5-dihydro-1H-imidazol-2-yl)benzyl]-N-methylfuran-3-carboxamide]"
4,0.1 to 1 µM,"CN(Cc1cc(C(=O)NCc2ccc(C3=NCCN3)cc2)co1)S(=O)(=O)c1c(Cl)cccc1Cl [Ex 26, 5-({[(2,6-dichlorophenyl)sulfonyl](methyl)amino}methyl)-N-[4-(4,5-dihydro-1H-imidazol-2-yl)benzyl]furan-3-carboxamide]"
5,< 0.01 µM,"COc1cc(C)c(S(=O)(=O)N(Cc2nc(C(=O)N(C)Cc3ccc(CN4CCC(N(C)C)C4)cc3)co2)C2CC2)c(C)c1 (centres unmarked) [Ex 190, 2-({Cyclopropyl[(4-methoxy-2,6-dimethylphenyl)sulfonyl]amino}methyl)-N-(4-{[3-(dimethylamino)pyrrolidin-1-yl]methyl}benzyl)-N-methyl-1,3-oxazole-4-carboxamide]"
6,< 0.01 µM,"COc1cc(C)c(S(=O)(=O)N(C)Cc2cc(C(=O)NCCc3ccc(C4=NCCN4)cc3)co2)c(C)c1 [Ex 4, N-{2-[4-(4,5-dihydro-1H-imidazol-2-yl)phenyl]ethyl}-5-({[(4-methoxy-2,6-dimethylphenyl)sulfonyl](methyl)amino}methyl)furan-3-carboxamide]"
7,< 0.01 µM,"COc1cc(C)c(S(=O)(=O)N(Cc2nc(C(=O)N(C)Cc3cccc(CN4CCCC4)c3)co2)C2CC2)c(C)c1 [Ex 77, 2-({Cyclopropyl[(4-methoxy-2,6-dimethylphenyl)sulfonyl]amino}methyl)-N-methyl-N-[3-(pyrrolidin-1-ylmethyl)benzyl]-1,3-oxazole-4-carboxamide]"

# The remaining lines, values behind:
row,Compound,IC50
1,"COc1cc(C)c(S(=O)(=O)N(Cc2nc(C(=O)N3CCC(N(C)Cc4ccc(OC)nc4)C3)co2)C2CC2)c(C)c1 (centres unmarked) [Ex 212, N-Cyclopropyl-4-methoxy-N-({4-[(3-{[(6-methoxypyridin-3-yl)methyl](methyl)amino}pyrrolidin-1-yl)carbonyl]-1,3-oxazol-2-yl}methyl)-2,6-dimethylbenzenesulfonamide trifluoroacetate]",0.1 to 1 µM
2,"CCc1cc(Br)ccc1S(=O)(=O)N(C)Cc1cc(C(=O)NCc2cccc(CN3CCCC3)c2)co1 [Ex 16, 5-({[(4-bromo-2-ethylphenyl)sulfonyl](methyl)amino}methyl)-N-[3-(pyrrolidin-1-ylmethyl)benzyl]furan-3-carboxamide]",0.1 to 1 µM
3,"COc1cc(C)c(S(=O)(=O)N(C)Cc2noc(C(=O)N3CCN(CC4CCCN(C)C4)CC3)n2)c(C)c1 (centres unmarked) [Ex 303, 4-Methoxy-N,2,6-trimethyl-N-{[5-({4-[(1-methylpiperidin-3-yl)methyl]piperazin-1-yl}carbonyl)-1,2,4-oxadiazol-3-yl]methyl}benzenesulfonamide trifluoroacetamide]",0.1 to 1 µM
4,"COc1cc(C)c(S(=O)(=O)N(Cc2nc(C(=O)N3CCN(CCCN4CCCC4)CC3)co2)C2CC2)c(C)c1 [Ex 197, N-Cyclopropyl-4-methoxy-2,6-dimethyl-N-[(4-{[4-(3-pyrrolidin-1-ylpropyl)piperazin-1-yl]carbonyl}-1,3-oxazol-2-yl)methyl]benzenesulfonamide trifluoroacetate]",< 0.01 µM
5,"COc1cc(C)c(S(=O)(=O)N(C)Cc2nc(C(=O)N3CCN(Cc4cccnc4)CC3)no2)c(C)c1 [Ex 323, 4-Methoxy-N,2,6-trimethyl-N-[(3-{[4-(pyridin-3-ylmethyl)piperazin-1-yl]carbonyl}-1,2,4-oxadiazol-5-yl)methyl]benzenesulfonamide]",0.1 to 1 µM
6,"COc1cc(C)c(S(=O)(=O)N(Cc2nc(C(=O)N(C)Cc3ccc4c(c3)CN(C)C4)co2)C2CC2)c(C)c1 [Ex 225, 2-({Cyclopropyl[(4-methoxy-2,6-dimethylphenyl)sulfonyl]amino}methyl)-N-methyl-N-[(2-methyl-2,3-dihydro-1H-isoindol-5-yl)methyl]-1,3-oxazole-4-carboxamide trifluoroacetate]",0.01 to 0.1 µM
7,"COc1cc(C)c(S(=O)(=O)N(C)Cc2cc(C(=O)N(C)Cc3ccc(CN4CCCC(OC)C4)cc3)co2)c(C)c1 (centres unmarked) [Ex 130, 5-({[(4-Methoxy-2,6-dimethylphenyl)sulfonyl](methyl)amino}methyl)-N-{4-[(3-methoxypiperidin-1-yl)methyl]benzyl}-N-methylfuran-3-carboxamide]",0.1 to 1 µM
